Values quoted from earlier work as cited in patent US20150030707A1, “Rhus Coriaria L. Extract For Use In The Treatment Of Hyperhidrosis” (BIOMEDICAL RESEARCH S.R.L., priority 2012, published 2015).

Conditions: in vivo

botulinum toxin
duration of efficacy of the injections: 5-6 months
